Results on four molecules are retold here after patent US20020016384A1, “Hydrolysis-stable and polymerizable acrylophosphonic acid” (Ivoclar Vivadent AG., priority 2000, published 2002).

Series [1] can be described thus: Investigation of the solubility in water and organic solvents. Format: physicochemical. The source says:
The solubility of monomers 3 and 5 and of a comparison monomer (comparison monomer 2; X=COO, Z=H) in water, ethanol, acetone, methylene chloride and ethyl acetate was investigated.
Solubility: ++: very good (>20 wt.-%), +: good (10-20 wt.-%), 0: practically insoluble (<1 wt.-%). [drawing 25]

A short description of series [2]: Investigation of the hydrolytic stability by 1H-NMR. As to conditions: 20% solution in 1:1 water/ethanol; for change in the 1H-NMR spectrum (hydrolytic stability): stored at 37° C., 12-week investigation period, spectrum recorded weekly. Format: physicochemical. As for the experimental part:
Monomers 3 and 5 are each dissolved in a 1:1 mixture of water and ethanol and stored as 20% solution at 37° C. The ^1H-NMR spectrum of the solution is recorded weekly.

With `C=C(COCCP(=O)(O)O)C(=O)O` [Comparison monomer 2, reference compound], in series [1], the Solubility in acetone is on record as 0 (practically insoluble (<1 wt.-%)), the Solubility in ethanol is 0 (practically insoluble (<1 wt.-%)), the “Solubility in ethyl acetate” value is 0 (practically insoluble (<1 wt.-%)) and the “Solubility in methylene chloride” value is listed as 0 (practically insoluble (<1 wt.-%)). Moreover, in series [1], the Solubility in water result is reported as “++ (very good (>20 wt.-%))”.

As for `C=C(COCCP(=O)(O)O)C(=O)N(CC)CC` [Monomer 3, 2-[4-(dihydroxyphosphoryl)-2-oxabutyl]-acrylic acid diethylamide], in series [1], the Solubility in acetone result is on record as “++ (very good (>20 wt.-%))”, the Solubility in ethanol entry was “++ (very good (>20 wt.-%))”, the “Solubility in ethyl acetate” value was “++ (very good (>20 wt.-%))” and the “Solubility in methylene chloride” value was “++ (very good (>20 wt.-%))”. Moreover, in series [1], the Solubility in water result is reported as “++ (very good (>20 wt.-%))”. Further, the “change in the 1H-NMR spectrum (hydrolytic stability)” value in series [2] was “no change in the spectrum”.

In the case of `C=C(C#N)COCCP(=O)(O)O` [Monomer 5, 2-[4-(dihydroxyphosphoryl)-2-oxabutyl]-acrylonitrile], in series [1], the Solubility in acetone result was “++ (very good (>20 wt.-%))”, the Solubility in ethanol entry is recorded as “++ (very good (>20 wt.-%))”, the “Solubility in ethyl acetate” value was “++ (very good (>20 wt.-%))” and the “Solubility in methylene chloride” value is listed as “++ (very good (>20 wt.-%))”. For the same molecule, the Solubility in water entry in series [1] is reported as “++ (very good (>20 wt.-%))”. In addition, the “change in the 1H-NMR spectrum (hydrolytic stability)” value in series [2] was “no change in the spectrum”.

For the molecule `C=C(COCCP(=O)(OC)OC)C(=O)OCC` [comparison monomer 1, 2-[4-(dimethoxyphosphoryl)-2-oxa-butyl]-acrylic acid ethyl ester, reference compound], the “hydrolytic elimination of the ethoxy group” value in series [2] (37° C., after 3 months, 1H-NMR) stood at 20%.
